According to the supplement of paper PMC10307832:

Legend:
Test in all cases: relative viability (nuclei count vs DMSO), 5 days (fraction); higher = more cells survive
Masitinib + Dasatinib = compound: Cc1ccc(NC(=O)c2ccc(CN3CCN(C)CC3)cc2)cc1Nc1nc(-c2cccnc2)cs1 [Masitinib] + Cc1nc(Nc2ncc(C(=O)Nc3c(C)cccc3Cl)s2)cc(N2CCN(CCO)CC2)n1 [Dasatinib] (partner 0.075 µM)
Summary of the method: (§1)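 Nuclei were stained with Hoechst during a one-step fixation (final 0.05% Triton X-100, 1% formaldehyde, 1 ug/ml Hoechst) carried out 5 days after dosing, then counted on 4× images. The cells, lung cancer lines in 1536-well plates, had been dosed by pin tool the day after seeding with one drug alone or a fixed anchor-drug dose plus five library-drug doses (not always all listed) in √10 steps. Relative viability is the nuclei count in treated wells divided by that in vehicle wells, and each value is the median of duplicate plates.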

Masitinib + Vorinostat = compound: Cc1ccc(NC(=O)c2ccc(CN3CCN(C)CC3)cc2)cc1Nc1nc(-c2cccnc2)cs1 [Masitinib] + O=C(CCCCCCC(=O)Nc1ccccc1)NO [Vorinostat] (partner 1 µM)
Summary of the method: as §1

Masitinib + Decitabine = compound: Cc1ccc(NC(=O)c2ccc(CN3CCN(C)CC3)cc2)cc1Nc1nc(-c2cccnc2)cs1 [Masitinib] + Nc1ncn([C@H]2C[C@H](O)[C@@H](CO)O2)c(=O)n1 [Decitabine] (partner 2 µM)
Summary of the method: as §1

[1] = compound: CC1=CC(=CC=C1)NC2=NC(=CS2)C3=CC=NC=C3 + O=C(CCCCCCC(=O)Nc1ccccc1)NO [Vorinostat] (partner 1 µM)
Summary of the method: as §1

| Cell Line | relative viability (Masitinib + Dasatinib; first compound 0.01 µM) | relative viability (Masitinib + Dasatinib; first compound 0.03162 µM) | relative viability (Masitinib + Dasatinib; first compound 0.1 µM) | relative viability (Masitinib + Dasatinib; first compound 0.3162 µM) | relative viability (Masitinib + Dasatinib; first compound 1 µM) | relative viability (Masitinib + Vorinostat; first compound 0.01 µM) | relative viability (Masitinib + Vorinostat; first compound 0.03162 µM) | relative viability (Masitinib + Vorinostat; first compound 0.1 µM) | relative viability (Masitinib + Vorinostat; first compound 0.3162 µM) | relative viability (Masitinib + Vorinostat; first compound 1 µM) | relative viability (Masitinib + Decitabine; first compound 0.01 µM) | relative viability (Masitinib + Decitabine; first compound 0.03162 µM) | relative viability (Masitinib + Decitabine; first compound 0.1 µM) | relative viability (Masitinib + Decitabine; first compound 0.3162 µM) | relative viability (Masitinib + Decitabine; first compound 1 µM) | relative viability ([1]; first compound 0.08 µM) | relative viability ([1]; first compound 0.253 µM) | relative viability ([1]; first compound 0.8 µM) | relative viability ([1]; first compound 2.53 µM) | relative viability ([1]; first compound 8 µM) |
| --- | --- | --- | --- | --- | --- | --- | --- | --- | --- | --- | --- | --- | --- | --- | --- | --- | --- | --- | --- | --- |
| NCI-H2342 | 0.326 | 0.334 | 0.3 | 0.301 | 0.34 | 0.789 | 0.671 | 0.829 | 0.856 | 0.83 | 0.724 | 0.648 | 0.683 | 0.79 | 0.833 | 0.749 | 0.753 | 0.721 | 0.716 | 0.745 |
| NCI-H1793 | 0.415 | 0.398 | 0.396 | 0.356 | 0.462 | 0.828 | 0.66 | 0.712 | 0.379 | 0.687 | 0.486 | 0.509 | 0.502 | 0.53 | 0.591 | 0.633 | 0.616 | 0.771 | 0.632 | 0.8 |
| LU99A | 0.583 | 0.619 | 0.557 | 0.503 | 0.503 | 0.455 | 0.433 | 0.492 | 0.534 | 0.467 | 0.921 | 0.916 | 0.901 | 0.997 | 0.986 | 0.445 | 0.601 | 0.582 | 0.443 | 0.479 |
| HCC-366 |  | 0.654 |  | 0.619 | 0.609 |  | 0.335 | 0.344 | 0.249 | 0.334 |  | 0.339 | 0.369 | 0.389 | 0.33 | 0.248 | 0.172 | 0.255 | 0.186 | 0.198 |
| 201T | 0.53 | 0.594 | 0.521 | 0.42 | 0.491 | 0.74 | 1.05 | 0.774 | 0.78 | 0.914 | 0.762 | 0.861 | 0.848 | 0.921 | 0.881 | 0.933 | 0.937 | 0.92 | 0.842 | 0.76 |
| HCC-827 | 0.269 | 0.286 | 0.275 | 0.314 | 0.293 | 0.603 | 0.845 | 0.712 | 0.876 | 0.745 | 0.296 | 0.342 | 0.295 | 0.27 | 0.312 | 0.778 | 0.772 | 0.819 | 0.651 | 0.653 |
| NCI-H650 | 0.516 | 0.429 | 0.482 | 0.313 | 0.415 | 0.458 | 0.527 | 0.415 | 0.484 | 0.404 | 0.307 | 0.343 | 0.308 | 0.298 | 0.36 | 0.414 | 0.429 | 0.395 | 0.624 | 0.599 |
| NCI-H2085 | 0.215 | 0.249 | 0.242 | 0.278 | 0.215 | 0.7 | 0.829 | 0.67 | 0.701 | 0.822 | 0.55 | 0.522 | 0.511 | 0.536 | 0.509 | 0.763 | 0.763 | 0.693 | 0.755 | 0.645 |
| NCI-H596 | 0.594 | 0.566 | 0.675 | 0.667 | 0.615 | 0.702 | 0.546 | 0.545 | 0.533 | 0.588 | 0.994 | 0.959 | 1.11 | 1.14 | 0.934 | 0.552 | 0.489 | 0.453 | 0.529 | 0.422 |
| SK-LU-1 | 0.157 | 0.202 | 0.174 | 0.195 | 0.18 | 0.779 | 0.844 | 0.744 | 0.926 | 0.774 | 0.569 | 0.526 | 0.725 | 0.594 | 0.646 | 0.76 | 0.796 | 0.53 | 0.799 | 0.727 |
| A-427 |  | 0.726 |  | 0.802 | 0.695 | 0.608 | 0.827 | 0.791 | 0.826 | 0.827 | 0.491 | 0.539 | 0.567 | 0.515 | 0.541 | 0.815 | 0.835 | 0.857 | 0.912 | 0.753 |
| NCI-H460 | 0.392 | 0.447 | 0.561 | 0.344 | 0.485 | 0.766 | 0.418 | 0.841 | 0.647 | 0.758 | 0.307 | 0.378 | 0.45 | 0.455 | 0.462 | 0.54 | 0.536 | 0.562 | 0.462 | 0.395 |
| NCI-H1734 | 0.449 | 0.521 | 0.508 | 0.518 | 0.416 | 0.751 | 0.756 | 0.773 | 0.779 | 0.794 | 0.539 | 0.485 | 0.546 | 0.522 | 0.483 | 0.725 | 0.77 | 0.782 | 0.752 | 0.681 |
| NCI-H1915 |  | 0.214 |  | 0.319 | 0.276 |  | 0.488 |  | 0.505 | 0.541 |  | 0.239 |  | 0.241 | 0.246 | 0.442 | 0.452 | 0.477 | 0.501 | 0.525 |
| SW 1573 | 0.452 | 0.463 | 0.526 | 0.52 | 0.476 | 0.645 | 0.763 | 0.929 | 0.968 | 0.973 | 0.492 | 0.537 | 0.535 | 0.51 | 0.471 | 0.739 | 0.748 | 0.815 | 0.727 | 0.687 |
| RERF-LC-KJ | 0.881 | 0.806 | 0.975 | 0.667 | 0.702 | 0.587 | 0.783 | 0.752 | 0.541 | 0.646 | 0.631 | 0.71 | 0.743 | 0.762 | 0.618 | 0.662 | 0.541 | 0.526 | 0.373 | 0.279 |
| EMC-BAC-2 | 0.35 | 0.33 | 0.397 | 0.314 | 0.296 | 0.38 |  | 0.441 | 0.445 | 0.335 | 0.771 |  | 0.918 | 1.02 | 0.957 | 0.367 |  | 0.579 | 0.343 | 0.425 |
